In patent US12612465B2, “Formulations comprising PCSK9 specific monoclonal antibodies” (Amgen Inc., priority 2012, dated 2026):

Biological target: PCSK9 (Homo sapiens, UniProt Q8NBP7)
Test: 12 week monotherapy dose-ranging study, Framingham risk 10% or less (Example 24)
Type: in vivo
Parameters: endogenous in cells; host or cells: human subjects, in vivo
Description: Ezetimibe was not blinded. The end-of-study visit and the last estimation of lipids was at week 12 for subjects on Q4W IP schedule or on ezetimibe and week 14 for subjects on Q2W IP schedule.
Males and females, ≥18 to ≤75 years of age, were eligible for this study. Fasting LDL-C was ≥100 mg/dL (2.6 mmol/L) and ≤190 mg/dL (4.9 mmol/L) and fasting triglycerides ≤400 mg/dL (4.5 mmol/L) by central laboratory at screening.
The primary endpoint was the percent change from baseline in LDL-C at week 12. Secondary endpoints included percent changes in apolipoprotein B (ApoB), lipoprotein (a) (Lp(a)), and in the ratio of total cholesterol to high-density lipoprotein (HDL)-C. Tolerability and safety were also evaluated.

Sequence of PCSK9 (Q8NBP7 153-692): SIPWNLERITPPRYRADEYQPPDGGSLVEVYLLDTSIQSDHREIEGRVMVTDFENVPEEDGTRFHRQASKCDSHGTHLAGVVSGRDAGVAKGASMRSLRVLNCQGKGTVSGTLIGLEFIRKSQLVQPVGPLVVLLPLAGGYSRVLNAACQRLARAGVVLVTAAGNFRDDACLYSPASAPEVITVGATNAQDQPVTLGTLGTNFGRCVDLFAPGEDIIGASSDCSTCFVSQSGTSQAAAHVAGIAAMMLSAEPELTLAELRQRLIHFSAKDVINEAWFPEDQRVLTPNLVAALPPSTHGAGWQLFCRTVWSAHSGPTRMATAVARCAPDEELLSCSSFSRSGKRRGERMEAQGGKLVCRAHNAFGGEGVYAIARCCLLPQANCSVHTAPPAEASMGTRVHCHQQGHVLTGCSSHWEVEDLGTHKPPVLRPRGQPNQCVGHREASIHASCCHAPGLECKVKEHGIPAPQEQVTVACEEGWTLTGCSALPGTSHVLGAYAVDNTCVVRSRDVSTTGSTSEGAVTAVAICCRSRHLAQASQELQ

Least squares mean percent change from baseline in LDL-C, week 12 (Ezetimibe QD (N = 45)): −14.26% | percent change from baseline in LDL-C (ezetimibe QD PO, week 12, final data): 14%
SMILES: O=C1[C@H](CC[C@H](O)c2ccc(F)cc2)[C@@H](c2ccc(O)cc2)N1c1ccc(F)cc1 [Ezetimibe, ezetimibe, reference compound]
